The values that follow come from patent US11247972B2, “Compositions and methods for treating toxoplasmosis, cryptosporidiosis, and other apicomplexan protozoan related diseases” (University of Washington through its Center for …, priority 2010, dated 2022).

For one test, the target named is PfCDPK4 (Plasmodium falciparum (isolate 3D7), UniProt Q8IBS5). The experiment in a line: biochemical. Particulars: read-out: PfCDPK4 (% inhibition @ 3 uM).
The next test deals with PfCDPK1 (Plasmodium falciparum (isolate 3D7), UniProt P62344). The experiment in a line: biochemical. Particulars: read-out: PfCDPK1 (% inhibition @ 3 uM).

With `CC(C)c1cccc(-c2nn(C(C)C)c3ncnc(N)c23)c1` [Compound 7e, 1-isopropyl-3-(3-isopropylphenyl)-1H-pyrazolo[3,4-d]pyrimidin-4-amine], the inhibition at 3 µM at PfCDPK4 amounted to 52%; on PfCDPK1, 74%.

As for `Cc1ccc(-c2nn(C(C)C)c3ncnc(N)c23)cc1C` [Compound 7h, 3-(3,4-dimethylphenyl)-1-isopropyl-1H-pyrazolo[3,4-d]pyrimidin-4-amine], the inhibition at 3 µM on PfCDPK4 worked out at 85%; at PfCDPK1, 83%.

In the case of `CC(C)n1nc(-c2cccc3ccccc23)c2c(N)ncnc21` [Compound 7o, 1-isopropyl-3-(naphthalen-1-yl)-1H-pyrazolo[3,4-d]pyrimidin-4-amine], the inhibition at 3 µM at PfCDPK4 is 79%; on PfCDPK1, 58%.

Take `CC(C)n1nc(-c2ccc3ccccc3c2)c2c(N)ncnc21` [Compound 7p, 1-isopropyl-3-(naphthalen-2-yl)-1H-pyrazolo[3,4-d]pyrimidin-4-amine]: the inhibition at 3 µM on PfCDPK4 turned out to be 98%; on PfCDPK1, 95%.

As to `CCOc1ccc2cc(-c3nn(C(C)C)c4ncnc(N)c34)ccc2c1` [Compound 7r, 3-(6-ethoxynaphthalen-2-yl)-1-isopropyl-1H-pyrazolo[3,4-d]pyrimidin-4-amine], the inhibition at 3 µM at PfCDPK4 worked out at 99%; on PfCDPK1, 94%.

On to `COc1cc2ccccc2cc1-c1nn(C(C)C)c2ncnc(N)c12` [Compound 7s, 1-isopropyl-3-(3-methoxynaphthalen-2-yl)-1H-pyrazolo[3,4-d]pyrimidin-4-amine], for which the inhibition at 3 µM on PfCDPK4 came out at 20%; at PfCDPK1, 53%.

For `CC(C)n1nc(-c2ccc3c(c2)OCO3)c2c(N)ncnc21` [Compound 7u, 3-(benzo[d][1,3]dioxol-5-yl)-1-isopropyl-1H-pyrazolo[3,4-d]pyrimidin-4-amine], the inhibition at 3 µM at PfCDPK4 is 77%; on PfCDPK1 it was 94%.

In the case of `CC(C)n1nc(-c2cccc(-c3ccccc3)c2)c2c(N)ncnc21` [Compound 7z, 3-(biphenyl-3-yl)-1-isopropyl-1H-pyrazolo[3,4-d]pyrimidin-4-amine], the results for the inhibition at 3 µM at PfCDPK4 and at PfCDPK1 were 21% and 79%, respectively.

Consider `CC(C)c1nc(-c2ccc3ccccc3c2)c2c(N)nccn12` [Compound 8, 3-isopropyl-1-(naphthalen-2-yl)imidazo[1,5-a]pyrazin-8-amine], for which the inhibition at 3 µM on PfCDPK4 and at PfCDPK1 was 92% throughout.

For the molecule `CC(C)c1nc(-c2cnc3ccccc3c2)c2c(N)nccn12` [Compound 9, 3-isopropyl-1-(quinolin-3-yl)imidazo[1,5-a]pyrazin-8-amine], the inhibition at 3 µM on PfCDPK4 amounted to 88%; at PfCDPK1 it was 76%.

`CCOc1ccc2cc(-c3nc(C(C)C)n4ccnc(N)c34)ccc2c1` [Compound 10, 1-(6-ethoxynaphthalen-2-yl)-3-isopropylimidazo[1,5-a]pyrazin-8-amine]: the results for the inhibition at 3 µM at PfCDPK4 and at PfCDPK1 were 94% and 93%, respectively.

Turning to `CC(C)Oc1ccc2cc(-c3nn(C(C)C)c4ncnc(N)c34)ccc2c1` [Compound 11, 3-(6-isopropoxynaphthalen-2-yl)-1-isopropyl-1H-pyrazolo[3,4-d]pyrimidin-4-amine], the figures for the inhibition at 3 µM on PfCDPK4 and on PfCDPK1 were 87% and 93%, respectively.

Turning to `CCCOc1ccc2cc(-c3nn(C(C)C)c4ncnc(N)c34)ccc2c1` [Compound 12, 1-isopropyl-3-(6-propoxynaphthalen-2-yl)-1H-pyrazolo[3,4-d]pyrimidin-4-amine], the inhibition at 3 µM on PfCDPK4 is 91%; at PfCDPK1 it was 95%.

Turning to `Nc1ncnc2c1c(Cc1cccc3ccccc13)nn2CC1CCCCC1` [Compound 17, 1-(cyclohexylmethyl)-3-(naphthalen-1-ylmethyl)-1H-pyrazolo[3,4-d]pyrimidin-4-amine], the inhibition at 3 µM on PfCDPK4 came out at 5%; on PfCDPK1 it was 44%.

In the case of `CC(C)n1nc(-c2cccc(OCc3ccccc3Cl)c2)c2c(N)ncnc21` [Compound 21, 3-(3-(2-chlorobenzyloxy)phenyl)-1-isopropyl-1H-pyrazolo[3,4-d]pyrimidin-4-amine], the inhibition at 3 µM stood at 9% on PfCDPK4 and 68% on PfCDPK1.

As for `COc1cc(COc2cccc(-c3nn(C(C)C)c4ncnc(N)c34)c2)cc(OC)c1` [Compound 22, 3-(3-(3,5-dimethoxybenzyloxy)phenyl)-1-isopropyl-1H-pyrazolo[3,4-d]pyrimidin-4-amine], the values for the inhibition at 3 µM on PfCDPK4 and at PfCDPK1 were 9% and 71%, respectively.

Consider `COc1ccc(-c2nn(C(C)C)c3ncnc(N)c23)cc1OC(C)C` [Compound 23, 3-(3-isopropoxy-4-methoxyphenyl)-1-isopropyl-1H-pyrazolo[3,4-d]pyrimidin-4-amine], for which the inhibition at 3 µM on PfCDPK4 is 11%; on PfCDPK1, 75%.

As for `COc1ccc2cc(-c3nn(CC4CCNCC4)c4ncnc(N)c34)ccc2c1` [Compound 28, 3-(6-methoxynaphthalen-2-yl)-1-(piperidin-4-ylmethyl)-1H-pyrazolo[3,4-d]pyrimidin-4-amine], the values for the inhibition at 3 µM at PfCDPK4 and at PfCDPK1 were 99% and 92%, respectively.

Turning to `Nc1ncnc2c1c(-c1cnc3ccccc3c1)nn2CC1CCNCC1` [Compound 30, 1-(piperidin-4-ylmethyl)-3-(quinolin-3-yl)-1H-pyrazolo[3,4-d]pyrimidin-4-amine], the results for the inhibition at 3 µM at PfCDPK4 and at PfCDPK1 were 86% and 82%, respectively.

`Nc1ncnc2c1c(Cc1cccc3ccccc13)nn2Cc1c[nH]cn1` [Compound 31, 1-((1H-imidazol-4-yl)methyl)-3-(naphthalen-1-ylmethyl)-1H-pyrazolo[3,4-d]pyrimidin-4-amine]: the inhibition at 3 µM on PfCDPK4 came to 40%; at PfCDPK1, 51%.

On to `Nc1ncnc2c1c(-c1ccc3cc(OCc4ccc(Cl)cc4)ccc3c1)nn2CC1CCNCC1` [Compound 39, 3-(6-(4-chlorobenzyloxy)naphthalen-2-yl)-1-(piperidin-4-ylmethyl)-1H-pyrazolo[3,4-d]pyrimidin-4-amine], for which the inhibition at 3 µM amounted to 98% on PfCDPK4 and 102% at PfCDPK1.

Turning to `CC(C)n1nc(-c2ccc3cc(OCc4ccccc4)ccc3c2)c2c(N)ncnc21` [Compound 40, 3-(6-(benzyloxy)naphthalen-2-yl)-1-isopropyl-1H-pyrazolo[3,4-d]pyrimidin-4-amine], the inhibition at 3 µM at PfCDPK4 was 84%; at PfCDPK1 it was 101%.

Consider `C=CCOc1ccc2cc(-c3nn(C(C)C)c4ncnc(N)c34)ccc2c1` [Compound 41, 3-(6-(allyloxy)naphthalen-2-yl)-1-isopropyl-1H-pyrazolo[3,4-d]pyrimidin-4-amine], for which the inhibition at 3 µM on PfCDPK4 is 98%; on PfCDPK1, 101%.

In the case of `CCCCOc1ccc2cc(-c3nn(C(C)C)c4ncnc(N)c34)ccc2c1` [Compound 42, 3-(6-butoxynaphthalen-2-yl)-1-isopropyl-1H-pyrazolo[3,4-d]pyrimidin-4-amine], the inhibition at 3 µM on PfCDPK4 amounted to 94%; at PfCDPK1, 101%.

For the molecule `CC(C)COc1ccc2cc(-c3nn(C(C)C)c4ncnc(N)c34)ccc2c1` [Compound 43, 3-(6-isobutoxynaphthalen-2-yl)-1-isopropyl-1H-pyrazolo[3,4-d]pyrimidin-4-amine], the inhibition at 3 µM turned out to be 78% at PfCDPK4 and 100% at PfCDPK1.
